From PMC10419252, “Synthesis, Properties, and Biomedical Application of Dicationic Gemini Surfactants with Dodecane Spacer and Carbamate Fragments” (International Journal of Molecular Sciences, 2023)
≈ marks a conversion by molar mass, not a printed value.

Legend:
[1] = alkyltrimethylammonium bromides; cited from earlier work
[2] = tested on: methicillin-resistant S. aureus MRSA-1 (resistant to fluoroquinolones and beta-lactams); conditions: cited from earlier work
[3] = tested on: Candida albicans ATCC 10231; assay: Antifungal activity (Ca); format: cell-based; conditions: Candida albicans, ATCC10231
Procedure: (§1) The antimicrobial activity of the compounds was tested on Gram-positive Staphylococcus aureus ATCC 6538P FDA 209P (Sa), Bacillus cereus ATCC 10702 NCTC 8035 (Bc), Enterococcus faecalis ATCC 29212 (Ef), and Gram-negative bacteria Escherichia coli ATCC 25922 (Ec), Pseudomonas aeruginosa ATCC 9027 (Pa), including methicillin-resistant strains of S. aureus MRSA-1 (resistant to fluoroquinolones and beta-lactams) and MRSA-2 (resistant to beta-lactams). Antifungal activity was studied against Candida albicans ATCC 10231 (Ca), Trichophyton mentagrophytes var. gypseum 1773 (Tm), and Aspergillus niger BKMF-1119 (An). A more detailed description of the experiment is published in [21].

[4] = tested on: Trichophyton mentagrophytes var. gypseum 1773; assay: Antifungal activity (Tm); format: cell-based; conditions: Trichophyton mentagrophytes
Procedure: as §1

[5] = tested on: Aspergillus niger BKMF-1119; assay: Antifungal activity (An); format: cell-based; conditions: Aspergillus niger, BKMF1119
Procedure: as §1

## CCCCCCCCCCCCCC[N+](C)(C)C.[Br-] [C14TAB]
[1]
  Nagg: 70

## CCCCCCCCCCCCCCCC[N+](C)(C)C.[Br-] [C16TAB]
[1]
  Nagg: 89

## O=C(O)c1cn(C2CC2)c2cc(N3CCNCC3)c(F)cc2c1=O [Ciprofloxacin]
[2]
  effectiveness toward MRSA-1 compared with 10-12-10(Et): two orders of magnitude less effective

## CC(=O)N1CCN(c2ccc(OCC3COC(Cn4ccnc4)(c4ccc(Cl)cc4Cl)O3)cc2)CC1 (stereo not drawn) [Ketoconazole, reference compound]
[3]; read-out: MFC, Ca
  MFC: 3.9 ± 0.3 µg/mL (≈ 7.34 µM)
[3]; read-out: MIC, Ca
  MIC: 3.9 ± 0.3 µg/mL (≈ 7.34 µM)
[4]; read-out: MFC, Tm
  MFC: 3.9 ± 0.3 µg/mL (≈ 7.34 µM)
[4]; read-out: MIC, Tm
  MIC: 3.9 ± 0.3 µg/mL (≈ 7.34 µM)
[5]; read-out: MFC, An
  MFC: 125 ± 10 µg/mL (≈ 235 µM)
[5]; read-out: MIC, An
  MIC: 15.6 ± 1.3 µg/mL (≈ 29.4 µM)
